“Also recorded” adds a separate entry of the source.
What was measured:
[1] = test system: TGF-β-induced increases in fibronectin and thrombospondin; conditions: cited from earlier work
[2] = test system: circulating levels of TNFα; conditions: mice; cited from earlier work
[3] = patients suffering from Psoriasis; seen as early as 4 weeks, persisted for 12 weeks; cited from earlier work
[4] = patients with sleep apnea; cited from earlier work
[5] = test system: influx of neutrophils to the lung in LPS-challenged rats; assay: Rat LPS neutrophilia model; assay type: in vivo; conditions: LPS aerosol 100 ug/ml 15 min, lavage 4 hours later; in at least one of the range of conditions tested
Method in brief: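 Rats were dosed intratracheally (200 µl, suspension, under isoflurane) 15 min–24 h before 15 min exposure to LPS aerosol (100 µg/ml). Four hours later, bronchoalveolar lavage cells were stained and counted differentially. Results are % neutrophil inhibition versus untreated controls at a stated dose and pretreatment time.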

Row | Compound | inhibition of neutrophilia [5] | melting point | other results
1 | COc1nccc(-c2c(-c3ccc(F)cc3)ncn2C2CCNCC2)n1 [SB-242235] |  |  | TGF-β-induced increases in fibronectin and thrombospondin [1]: inhibited
2 | CC(NC(C)(C)C)C(=O)c1cccc(Cl)c1 (centres unmarked) [bupropion] |  |  | circulating levels of TNFα [2]: reduce circulating levels of TNFα
3 | etanercept |  |  | symptoms of depression (HAMD and BDI score) and fatigue [3]: demonstrated efficacy; also recorded: reduce symptoms of depression; sleepiness [4]: decreases in sleepiness
4 | Cc1ccc(C(=O)Nc2ccc(C)c(-c3nc(OC(C)C)nc4c3CNC(=O)N4c3c(F)cccc3F)c2)cc1F [Example 26, N-(3-{8-(2,6-difluorophenyl)-2-[(1-methylethyl)oxy]-7-oxo-5,6,7,8-tetrahydropyrimido[4,5-d]pyrimidin-4-yl}-4-methylphenyl)-3-fluoro-4-methylbenzamide] | inactive | 253.5 to 255.4 °C | 
5 | Cc1ccc(C(=O)Nc2ccc(C)c(-c3nc(NC4CC(C)(C)NC(C)(C)C4)nc4c3CNC(=O)N4c3c(F)cccc3F)c2)cc1F [23(e), N-(3-{8-(2,6-difluorophenyl)-7-oxo-2-[(2,2,6,6-tetramethyl-4-piperidinyl)amino]-5,6,7,8-tetrahydropyrimido[4,5-d]pyrimidin-4-yl}-4-methylphenyl)-3-fluoro-4-methylbenzamide] | statistically nonsignificant inhibition | 220 °C (dec.) | 
6 | CNC(=O)c1ccc(C)c(-c2nc(N3CCC(N4CCCC4)CC3)nc3c2CNC(=O)N3c2c(F)cccc2F)c1 [Example 175, 3-{8-(2,6-difluorophenyl)-7-oxo-2-[4-(1-pyrrolidinyl)-1-piperidinyl]-5,6,7,8-tetrahydropyrimido[4,5-d]pyrimidin-4-yl}-N,4-dimethylbenzamide] | inactive | 189 to 194 °C (dec.) | 
7 | CNC(=O)c1ccc(C)c(-c2nc(N3CCC(N4CCCCC4)CC3)nc3c2CNC(=O)N3c2c(F)cccc2F)c1 [Example 176, 3-[2-(1,4′-bipiperidin-1′-yl)-8-(2,6-difluorophenyl)-7-oxo-5,6,7,8-tetrahydropyrimido[4,5-d]pyrimidin-4-yl]-N,4-dimethylbenzamide] | statistically nonsignificant inhibition | 179 to 184 °C (dec.) | 
8 | Cc1ccc(NC(=O)c2ccsc2)cc1-c1nc(N2CCC(N)CC2)nc2c1CNC(=O)N2c1c(F)cccc1F [Example 11, N-{3-[2-(4-amino-1-piperidinyl)-8-(2,6-difluorophenyl)-7-oxo-5,6,7,8-tetrahydropyrimido[4,5-d]pyrimidin-4-yl]-4-methylphenyl}-3-thiophenecarboxamide] | statistically significant inhibition | 250 to 261 °C (dec.) | 
9 | Cc1ccc(C(=O)Nc2ccc(C)c(-c3nc(N(C)C)nc4c3CNC(=O)N4c3c(F)cccc3F)c2)cc1F [Example 28, N-{3-[8-(2,6-difluorophenyl)-2-(dimethylamino)-7-oxo-5,6,7,8-tetrahydropyrimido[4,5-d]pyrimidin-4-yl]-4-methylphenyl}-3-fluoro-4-methylbenzamide] | statistically nonsignificant inhibition | 257.8 to 264.3 °C | 
10 | Cc1ccc(C(=O)NCc2ccccc2)cc1-c1nc(NCCCN(C)C)nc2c1CNC(=O)N2c1c(F)cccc1F [Example 151, 3-(8-(2,6-difluorophenyl)-2-{[3-(dimethylamino)propyl]amino}-7-oxo-5,6,7,8-tetrahydropyrimido[4,5-d]pyrimidin-4-yl)-4-methyl-N-(phenylmethyl)benzamide] | statistically nonsignificant inhibition | 141 to 144 °C | 
11 | Cc1ccc(C(=O)NCc2ccccc2)cc1-c1nc(N2CCN(C)CC2)nc2c1CNC(=O)N2c1c(F)cccc1F [Example 148, 3-[8-(2,6-difluorophenyl)-2-(4-methyl-1-piperazinyl)-7-oxo-5,6,7,8-tetrahydropyrimido[4,5-d]pyrimidin-4-yl]-4-methyl-N-(phenylmethyl)benzamide] | statistically nonsignificant inhibition | 164 to 168 °C | 

— patent publication US20090318424A1, “NOVEL COMPOUNDS” (priority 2006, published 2009)
